In patent publication US10899747B2, “Biaryl piperidine amide compounds and methods of use thereof” (Athenex, Inc., priority 2017, dated 2021):

Each compound was assayed on IL-2 (assay: PHA-IL2 (cell activation and cytokine analysis)). Conditions: 50% inhibition concentration class.
Type: cell-based
How it was run: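 Cells were seeded in 96-well plates at 1.0-2.0×10^6 cells/ml in 150 ul of RPMI containing 0.5% fetal calf serum. Test compounds, at up to ≤20 uM, were preincubated with the cells for 30 minutes, then phytohemagglutinin (PHA) was added and cultures were stimulated for 24-48 hours at 37 degrees C./5% CO2. Supernatant IL-2 was then quantified by standard ELISA.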

SMILES	IC50 [nM]
O=C(COc1ccccc1-c1ccc2cc[nH]c2c1)N1CCC(CCc2ccc3c(c2)OCCCO3)CC1 [Compound 343]	10000 to 50000
O=C(/C=C/c1ccccc1-c1ccc(F)cc1O)N1CCC(CCc2ccc3c(c2)OCO3)CC1 [Compound 344]	1000 to 10000
N#Cc1ccc(OCC(=O)N2CCC(CCc3ccccc3)CC2)c(-c2ccc(F)cc2O)c1 [Compound 345]	< 1000
N#Cc1ccc(OCC(=O)N2CCC(CCc3ccc4c(c3)OCO4)CC2)c(-c2ccc(F)cc2O)c1 [Compound 346]	< 1000
N#Cc1ccc(OCC(=O)N2CCC(CCc3ccc4c(c3)OCCO4)CC2)c(-c2ccc(F)cc2O)c1 [Compound 347]	< 1000
O=C(COc1ccccc1-c1ccc(F)cc1O)N1CCC(CCc2ccccc2)CC1 [Compound 348]	< 1000
O=C(COc1ccccc1-c1ccc(F)cc1O)N1CCC(CCc2ccc(OCCN3CCOCC3)cc2)CC1 [Compound 349]	1000 to 10000
COc1cccc(CCC2CCN(C(=O)COc3cccnc3-c3ccc(F)cc3O)CC2)c1 [Compound 350]	< 1000
O=C(COc1ccc(C(F)(F)F)cc1-c1ccc(F)cc1O)N1CCC(CCc2ccccc2)CC1 [Compound 351]	< 1000
COc1cccc(CCC2CCN(C(=O)COc3ccc(C#N)cc3-c3ccc(F)cc3O)CC2)c1 [Compound 352]	< 1000
COc1cccc(CCC2CCN(C(=O)COc3ccc(C(F)(F)F)cc3-c3ccc(F)cc3O)CC2)c1 [Compound 353]	< 1000
N#Cc1ccc(OCC(=O)N2CCC(CCc3cccc(OCCN4CCOCC4)c3)CC2)c(-c2ccc(F)cc2O)c1 [Compound 354]	1000 to 10000
O=C(COc1ccccc1-c1ccc(F)cc1O)N1CCC(CCc2cccc(OCCN3CCOCC3)c2)CC1 [Compound 355]	1000 to 10000
O=C(COc1ccc(C(F)(F)F)cc1-c1ccc(F)cc1O)N1CCC(CCc2cccc(OCCN3CCOCC3)c2)CC1 [Compound 356]	1000 to 10000
N#Cc1ccc(OCC(=O)N2CCC(CCc3ccc(OCCN4CCOCC4)cc3)CC2)c(-c2ccc(F)cc2O)c1 [Compound 357]	< 1000
O=C(COc1cccnc1-c1ccc(F)cc1O)N1CCC(CCc2ccc(OCCN3CCOCC3)cc2)CC1 [Compound 358]	1000 to 10000
O=C(COc1ccccc1-c1ccc(F)cc1O)N1CCC(CCc2cccc(OCCN3CCCC3)c2)CC1 [Compound 359]	1000 to 10000
O=C(COc1cccnc1-c1ccc(F)cc1O)N1CCC(CCc2cccc(OCCN3CCCCC3)c2)CC1 [Compound 360]	1000 to 10000
COc1cccc(CCC2CCN(C(=O)COc3cccnc3-c3ccc(C#N)cc3)CC2)c1 [Compound 361]	1000 to 10000
COc1cccc(CCC2CCN(C(=O)COc3cccnc3-c3ccc4[nH]ncc4c3)CC2)c1 [Compound 362]	1000 to 10000
COc1cccc(CCC2CCN(C(=O)COc3cccnc3-c3ccc(C(F)(F)F)cc3O)CC2)c1 [Compound 363]	1000 to 10000
COc1cccc(CCC2CCN(C(=O)COc3ccccc3-c3ccc(C(F)(F)F)cc3O)CC2)c1 [Compound 364]	1000 to 10000
O=C(COc1ccccc1-c1ccc(C(F)(F)F)cc1O)N1CCC(CCc2ccc3c(c2)OCO3)CC1 [Compound 365]	1000 to 10000
N#Cc1ccc(-c2cc(C(=O)NCc3ccccc3)ccc2OCC(=O)N2CCC(CCc3ccccc3)CC2)cc1 [Compound 366]	< 1000
CN1CC(NC(=O)c2ccc(OCC(=O)N3CCC(CCc4ccccc4)CC3)c(-c3ccc(C#N)cc3)c2)C1 [Compound 367]	1000 to 10000

SMILES	IC50 [nM]
N#Cc1ccc(-c2cc(C(=O)NC3CCOCC3)ccc2OCC(=O)N2CCC(CCc3ccccc3)CC2)cc1 [Compound 368]	1000 to 10000
N#Cc1ccc(-c2cc(C(=O)Nc3ccccc3)ccc2OCC(=O)N2CCC(CCc3ccccc3)CC2)cc1 [Compound 369]	1000 to 10000
O=C(COc1ccccc1-c1ccc2[nH]cnc2c1)N1CCC(CCc2ccccc2)CC1 [Compound 370]	1000 to 10000
COc1cccc(CCC2CCN(C(=O)COc3ccccc3-c3ccc4[nH]cnc4c3)CC2)c1 [Compound 371]	< 1000
N#Cc1ccc(OCC(=O)N2CCC(CCc3ccccc3)CC2)c(-c2ccc3[nH]cnc3c2)c1 [Compound 372]	1000 to 10000
COc1cccc(CCC2CCN(C(=O)COc3cccnc3-c3ccc4c(cnn4C)c3)CC2)c1 [Compound 373]	1000 to 10000
Cn1ncc2cc(-c3ncccc3OCC(=O)N3CCC(CCc4cccc(OCCN5CCOCC5)c4)CC3)ccc21 [Compound 374]	10000 to 50000
Cn1ncc2cc(-c3ncccc3OCC(=O)N3CCC(CCc4ccc5c(c4)OCO5)CC3)ccc21 [Compound 375]	1000 to 10000
O=C(COc1cccnc1-c1ccc2[nH]ccc2c1)N1CCC(CCc2ccccc2)CC1 [Compound 376]	1000 to 10000
COc1cccc(CCC2CCN(C(=O)COc3cccnc3-c3ccc4[nH]ccc4c3)CC2)c1 [Compound 377]	1000 to 10000
COc1cccc(CCC2CCN(C(=O)COc3cccnc3-c3ccc4c(ccn4C)c3)CC2)c1 [Compound 378]	1000 to 10000
Cn1ccc2cc(-c3ncccc3OCC(=O)N3CCC(CCc4ccc5c(c4)OCO5)CC3)ccc21 [Compound 379]	1000 to 10000
Cn1ccc2cc(-c3ncccc3OCC(=O)N3CCC(CCc4cccc(OCCN5CCOCC5)c4)CC3)ccc21 [Compound 380]	1000 to 10000
COc1cc(CCC2CCN(C(=O)COc3cccnc3-c3ccc(F)cc3O)CC2)ccc1OCCN1CCOCC1 [Compound 381]	10000 to 50000
O=C(COc1ccccc1-c1ccc2[nH]cnc2c1)N1CCC(CCc2ccc3c(c2)OCO3)CC1 [Compound 382]	1000 to 10000
O=C(COc1ccccc1-c1ccc2[nH]cnc2c1)N1CCC(CCc2ccc(O)cc2)CC1 [Compound 383]	1000 to 10000
Cn1ccc2cc(-c3ccccc3OCC(=O)N3CCC(CCc4ccc5c(c4)OCO5)CC3)ccc21 [Compound 384]	1000 to 10000
COc1cccc(CCC2CCN(C(=O)COc3ccc(S(N)(=O)=O)cc3-c3ccc(C#N)cc3)CC2)c1 [Compound 385]	1000 to 10000
COc1cccc(CCC2CCN(C(=O)COc3ccc(S(N)(=O)=O)cc3-c3ccc(F)cc3O)CC2)c1 [Compound 386]	1000 to 10000
COc1cccc(CCC2CCN(C(=O)COc3ccccc3-c3ccc4[nH]c(C)nc4c3)CC2)c1 [Compound 387]	1000 to 10000
Cc1nc2cc(-c3ccccc3OCC(=O)N3CCC(CCc4ccc5c(c4)OCO5)CC3)ccc2[nH]1 [Compound 388]	< 1000
COc1cccc(CCC2CCN(C(=O)COc3ccc(S(=O)(=O)NC(C)C)cc3-c3ccc(F)cc3O)CC2)c1 [Compound 389]	1000 to 10000
CC(C)NS(=O)(=O)c1ccc(OCC(=O)N2CCC(CCc3ccc4c(c3)OCO4)CC2)c(-c2ccc(F)cc2O)c1 [Compound 390]	1000 to 10000
COc1ccc(CCC2CCN(C(=O)COc3ccccc3-c3ccc(F)cc3O)CC2)cc1OCCN1CCOCC1 [Compound 391]	1000 to 10000
O=C(COc1ccccc1-c1ccc(F)cc1O)N1CCC(CCc2ccncc2)CC1 [Compound 392]	1000 to 10000

SMILES	IC50 [nM]
O=C(COc1ccccc1-c1ccc(F)cc1O)N1CCC(CCc2cccnc2)CC1 [Compound 393]	1000 to 10000
O=C(COc1cccnc1-c1ccc2[nH]ncc2c1)N1CCC(CCc2ccncc2)CC1 [Compound 396]	1000 to 10000
O=C(COc1cccnc1-c1ccc(F)cc1O)N1CCC(CCc2ccncc2)CC1 [Compound 397]	1000 to 10000
CC(C)Oc1cccc(CCC2CCN(C(=O)COc3ccccc3-c3ccc4[nH]cnc4c3)CC2)c1 [Compound 398]	< 1000
CC(C)Oc1cccc(CCC2CCN(C(=O)COc3ccc(C#N)cc3-c3ccc(F)cc3O)CC2)c1 [Compound 399]	< 1000
CC(C)Oc1cccc(CCC2CCN(C(=O)COc3ccccc3-c3ccc(F)cc3O)CC2)c1 [Compound 400]	< 1000
N#Cc1ccc(OCC(=O)N2CCC(CCc3cccc4ccccc34)CC2)c(-c2ccc(F)cc2O)c1 [Compound 401]	< 1000
O=C(COc1ccccc1-c1ccc2[nH]cnc2c1)N1CCC(CCc2cccc3ccccc23)CC1 [Compound 402]	< 1000
N#Cc1ccc(-c2ccccc2C2CC2C(=O)N2CCC(CCc3ccccc3)CC2)cc1 (stereo not shown) [Compound 404]	< 1000
O=C(C1CC1c1ccccc1-c1ccc(F)cc1O)N1CCC(CCc2ccccc2)CC1 (stereo not shown) [Compound 405]	< 1000
N#Cc1ccc(-c2ccccc2OCC(=O)N2CCC(CCc3cccc(OC4CC4)c3)CC2)cc1 [Compound 406]	< 1000
N#Cc1ccc(OCC(=O)N2CCC(CCc3cccc(OC4CC4)c3)CC2)c(-c2ccc(F)cc2O)c1 [Compound 407]	< 1000
CC(C)Oc1cccc(CCC2CCN(C(=O)COc3cccnc3-c3ccc(F)cc3O)CC2)c1 [Compound 408]	< 1000
N#Cc1ccc(OCC(=O)N2CCC(CCc3cccc(OC4CCCC4)c3)CC2)c(-c2ccc(F)cc2O)c1 [Compound 409]	< 1000
O=C(COc1cccnc1-c1ccc(F)cc1O)N1CCC(CCc2cccc(OC3CCCC3)c2)CC1 [Compound 410]	< 1000
CC(C)Oc1cccc(CCC2CCN(C(=O)COc3cccnc3-c3ccc(C#N)cc3)CC2)c1 [Compound 411]	< 1000
C#CCOc1ccc(CCC2CCN(C(=O)COc3ccccc3-c3ccc(C(=O)c4ccccc4)cc3)CC2)cc1 [Compound 412]	1000 to 10000
CC(C)Oc1cccc(CCC2CCN(C(=O)COc3ccc(C#N)cc3-c3ccccc3O)CC2)c1 [Compound 414]	< 1000
O=C(c1ccccc1)c1ccc(-c2ccccc2OCC(=O)N2CCC(CCc3cccc(O)c3)CC2)cc1 [Compound 415]	< 1000
C#CCOc1cccc(CCC2CCN(C(=O)COc3ccccc3-c3ccc(C(=O)c4ccccc4)cc3)CC2)c1 [Compound 416]	1000 to 10000
N#Cc1ccc(OCC(=O)N2CCC(CCc3cccc(O)c3)CC2)c(-c2ccc(C(=O)c3ccccc3)cc2)c1 [Compound 417]	< 1000
C#CCOc1cccc(CCC2CCN(C(=O)COc3ccc(C#N)cc3-c3ccc(C(=O)c4ccccc4)cc3)CC2)c1 [Compound 418]	< 1000
C#CCOc1ccc(C(=O)c2ccc(-c3ccccc3OCC(=O)N3CCC(CCc4cccc(OC(C)C)c4)CC3)cc2)cc1 [Compound 419]	1000 to 10000
